Assay results as given in patent US20220289708A1, “SUBSTITUTED N-PHENYL URACILS, SALTS THEREOF AND THEIR USE AS HERBICIDAL AGENTS” (Bayer Aktiengesellschaft, priority 2019, published 2022).

Key:
Assay type in all cases: in vivo
Triticum aestivum [1] = test: Pre-emergence crop plant compatibility; details: application rate 20 g/ha
Text: (§1) B. Pre-Emergence Herbicidal Action and Crop Plant Compatibility
(§2) Seeds of monocotyledonous and dicotyledonous weed plants and crop plants were placed in plastic or organic planting pots and covered with soil. The compounds of the invention, formulated in the form of wettable powders (WP) or as emulsion concentrates (EC), were then applied to the surface of the covering soil as aqueous suspension or emulsion with addition of 0.5% additive at a water application rate equivalent to 600 l/ha (converted). After the treatment, the pots were placed in a greenhouse and kept under good growth conditions for the test plants. After about 3 weeks, the effect of the preparations was scored visually in comparison with untreated controls as percentages. For example, 100% activity=the plants have died, 0% activity=like control plants.
(§3) Tables B14 to B16 below show the crop plant compatibilities of selected compounds of the general formula (I) according to Tables I.1 to I.36 at an application rate corresponding to 20 g/ha, which were obtained in experiments according to the experimental procedure mentioned above. Here, the observed effects on selected crop plants are stated in comparison to the untreated controls (values in %).

Zea mays = test: Pre-emergence crop plant compatibility; details: application rate 20 g/ha
Text: as §1, §2, §3

Oryza sativa = test: Post-emergence crop plant compatibility; details: application rate 5 g/ha
Method in brief: (§4)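 Greenhouse crop plants in sandy loam sprayed at one-leaf stage (2-3 weeks after sowing) with WP or EC formulations plus 0.5% additive, 600 l/ha water, at 5 g/ha or 20 g/ha. Damage scored visually after about 3 weeks as % versus untreated controls (100% = plants dead).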

Triticum aestivum [2] = test: Post-emergence crop plant compatibility; details: application rate 5 g/ha
Method in brief: as §4

Veronica persica [3] = test: Post-emergence herbicidal action; details: application rate 5 g/ha
Method in brief: (§5)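 Test plants, raised in sandy loam in the greenhouse, were treated 2 to 3 weeks after sowing at application rates of 20 g/ha or lower. Scoring compared treated with untreated plants roughly 3 weeks on, where 100% meant death and 0% meant no visible effect.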

Amaranthus retroflexus [4] = test: Post-emergence herbicidal action; details: application rate 5 g/ha, rated visually after about 3 weeks vs untreated controls
Method in brief: as §5

Abutilon theophrasti [5] = test: Post-emergence herbicidal action; details: application rate 5 g/ha, rated visually after about 3 weeks vs untreated controls
Method in brief: as §5

Echinochloa crus-galli [6] = test: Post-emergence herbicidal action; details: application rate 5 g/ha, rated visually after about 3 weeks vs untreated controls
Method in brief: as §5

Digitaria sanguinalis [7] = test: Post-emergence herbicidal action; details: rated visually after about 3 weeks vs untreated controls
Method in brief: as §5

Pharbitis purpurea [8] = test: Post-emergence herbicidal action; details: application rate 5 g/ha, rated visually after about 3 weeks vs untreated controls
Method in brief: as §5

Alopecurus myosuroides = test: Pre-emergence herbicidal action
Method in brief: (§6)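 Visual % activity after ~3 weeks in greenhouse, relative to untreated pots (100% = plants dead, 0% = like control). Treatment: pre-emergence soil-surface spray, WP/EC in water + 0.5% additive, 600 l/ha, rate ≤80 g/ha.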

Polygonum convolvulus = test: Pre-emergence herbicidal action; details: application rate 20 g/ha
Method in brief: as §6

Veronica persica [9] = test: Pre-emergence herbicidal action; details: application rate 20 g/ha
Method in brief: as §6

Viola tricolor = test: Pre-emergence herbicidal action; details: application rate 20 g/ha
Method in brief: as §6

Setaria viridis = test: Pre-emergence herbicidal action; details: application rate 20 g/ha
Method in brief: as §6

Lolium rigidum = test: Pre-emergence herbicidal action; details: application rate 80 g/ha
Method in brief: as §6

Amaranthus retroflexus [10] = test: Pre-emergence herbicidal action; details: application rate 20 g/ha
Method in brief: as §6

Avena fatua = test: Pre-emergence herbicidal action; details: application rate 80 g/ha
Method in brief: as §6

Abutilon theophrasti [11] = test: Pre-emergence herbicidal action; details: application rate 20 g/ha
Method in brief: as §6

Echinochloa crus-galli [12] = test: Pre-emergence herbicidal action
Method in brief: as §6

Digitaria sanguinalis [13] = test: Pre-emergence herbicidal action; details: application rate 20 g/ha
Method in brief: as §6

Matricaria inodora [14] = test: Pre-emergence herbicidal action; details: application rate 20 g/ha
Method in brief: as §6

Pharbitis purpurea [15] = test: Pre-emergence herbicidal action
Method in brief: as §6

Matricaria inodora [16] = test: Post-emergence herbicidal action; details: application rate 5 g/ha, rated visually after about 3 weeks vs untreated controls
Method in brief: as §5

| SMILES | Triticum aestivum (efficacy in %) (Triticum aestivum [1]) [%] | Zea mays (efficacy in %) (Zea mays) [%] | Oryza sativa (efficacy in %) (Oryza sativa) [%] | Triticum aestivum (efficacy in %) (Triticum aestivum [2]) [%] | Veronica persica (efficacy in %) (Veronica persica [3]) [%] | Amaranthus retroflexus (efficacy in %) (Amaranthus retroflexus [4]) [%] | Abutilon theophrasti (efficacy in %) (Abutilon theophrasti [5]) [%] | Echinochloa crus-galli (efficacy in %) (Echinochloa crus-galli [6]) [%] | Pharbitis purpurea (efficacy in %) (Pharbitis purpurea [8]) [%] | Polygonum convolvulus (efficacy in %) (Polygonum convolvulus) [%] | Veronica persica (efficacy in %) (Veronica persica [9]) [%] | Viola tricolor (efficacy in %) (Viola tricolor) [%] | Setaria viridis (efficacy in %) (Setaria viridis) [%] | Lolium rigidum (efficacy in %) (Lolium rigidum) [%] | Amaranthus retroflexus (efficacy in %) (Amaranthus retroflexus [10]) [%] | Avena fatua (efficacy in %) (Avena fatua) [%] | Abutilon theophrasti (efficacy in %) (Abutilon theophrasti [11]) [%] | Digitaria sanguinalis (efficacy in %) (Digitaria sanguinalis [13]) [%] | Matricaria inodora (efficacy in %) (Matricaria inodora [14]) [%] | Pharbitis purpurea (efficacy in %) (Pharbitis purpurea [15]; application rate 20 g/ha) [%] | other results |
| --- | --- | --- | --- | --- | --- | --- | --- | --- | --- | --- | --- | --- | --- | --- | --- | --- | --- | --- | --- | --- | --- |
| Cn1c(C(F)(F)F)cc(=O)n(-c2cc(Oc3cccnc3OCC(=O)OCCOCc3ccccc3)c(Cl)cc2F)c1=O [I.15-6] | 10 | 0 | 20 | 20 | 100 | 100 | 100 | 100 | 100 | 100 | 100 | 100 | 100 | 100 | 100 | 100 | 100 | 100 | 100 | 100 | Digitaria sanguinalis (efficacy in %) (Digitaria sanguinalis [7]; application rate 5 g/ha): 100%; Alopecurus myosuroides (efficacy in %) (Alopecurus myosuroides; application rate 20 g/ha): 90%; Echinochloa crus-galli (efficacy in %) (Echinochloa crus-galli [12]; application rate 80 g/ha): 100% |
| COCCOCCOCCOCCOC(=O)COc1ncccc1Oc1cc(-n2c(=O)cc(C(F)(F)F)n(C)c2=O)c(F)cc1Cl [I.15-154] | 10 | 0 | 0 | 0 | 100 | 100 | 100 | – | 100 | 100 | 100 | 100 | 100 | 100 | 100 | 100 | 100 | 100 | 100 | – | Digitaria sanguinalis (efficacy in %) (Digitaria sanguinalis [7]; application rate 20 g/ha): 100%; Alopecurus myosuroides (efficacy in %) (Alopecurus myosuroides; application rate 80 g/ha): 100%; Echinochloa crus-galli (efficacy in %) (Echinochloa crus-galli [12]; application rate 80 g/ha): 100%; Pharbitis purpurea (efficacy in %) (Pharbitis purpurea [15]; application rate 80 g/ha): 100% |
| Cn1c(C(F)(F)F)cc(=O)n(-c2cc(Oc3cccnc3OCC(=O)OCCS(C)(=O)=O)c(Cl)cc2F)c1=O [I.15-166] | 20 | – | – | 0 | 100 | 100 | 100 | – | – | 100 | 100 | 100 | 100 | 100 | 100 | 100 | 100 | 100 | 100 | 100 | Alopecurus myosuroides (efficacy in %) (Alopecurus myosuroides; application rate 20 g/ha): 90%; Echinochloa crus-galli (efficacy in %) (Echinochloa crus-galli [12]; application rate 20 g/ha): 80% |
| Cn1c(C(F)(F)F)cc(=O)n(-c2cc(Oc3cccnc3OCC(=O)OCC[Si](C)(C)C)c(Cl)cc2F)c1=O [I.15-211] | 0 | 20 | 0 | 0 | 100 | 100 | 100 | 100 | 80 | 100 | 100 | 100 | 100 | 100 | 100 | 80 | 100 | 100 | 100 | 80 | Digitaria sanguinalis (efficacy in %) (Digitaria sanguinalis [7]; application rate 5 g/ha): 100%; Alopecurus myosuroides (efficacy in %) (Alopecurus myosuroides; application rate 80 g/ha): 100%; Echinochloa crus-galli (efficacy in %) (Echinochloa crus-galli [12]; application rate 20 g/ha): 80% |
| CC(C#N)COC(=O)COc1ncccc1Oc1cc(-n2c(=O)cc(C(F)(F)F)n(C)c2=O)c(F)cc1Cl (stereo not shown) [I.15-405] | 20 | 0 | – | – | 100 | – | – | 100 | 100 | 90 | 100 | 100 | 100 | 100 | 100 | 100 | 100 | 100 | 100 | 100 | Digitaria sanguinalis (efficacy in %) (Digitaria sanguinalis [7]; application rate 5 g/ha): 100%; Matricaria inodora (efficacy in %) (Matricaria inodora [16]): 80%; Alopecurus myosuroides (efficacy in %) (Alopecurus myosuroides; application rate 80 g/ha): 100%; Echinochloa crus-galli (efficacy in %) (Echinochloa crus-galli [12]; application rate 20 g/ha): 80% |
